Results: US20030194784A1, “DNA encoding methymycin and pikromycin” (priority 2001, published 2003)

B1: A. eutrophus PHA synthase (phbC gene product), produced in insect cells with a baculovirus vector (enzyme)
chain: AAASTQEGKSQPFKVTPGPFDPATWLEWSRQWQGTEGNGHAAASGIPGLDALAGVKIAPAQLGDIQQRYMKDFSALWQAMAEGKAEATGPLHDRRFAGDAWRTNLPYRFAAAFYLLNARALTELADAVEADAKTRQRIRFAISQWVDAMSPANFLATNPEAQRLLIESGGESLRAGVRNMMEDLTRGKISQTDESAFEVGRNVAVTEGAVVFENEYFQLLQYKPLTDKVHARPLLMVPPCINKYYILDLQPESSLVRHVVEQGHTVFLVSWRNPDASMAGSTWDDYIEHAAIRAIEVARDISGQDKINVLGFCVGGTIVSTALAVLAARGEHPAASVTLLTTLLDFADTGILDVFVDEGHVQLREATLGGGAGAPCALLRGLELANTFSFLRPNDLVWNYVVDNYLKGNTPVPFDLLFWNGDATNLPGPWYCWYLRHTYLQNELKVPGKLTVCGVPVDLASIDVPTYIYGSREDHIVPWTAAYASTALLANKLRFVLGASGHIAGVINPPAKNKRSHWTNDALPESPQQWLAGAIEHHGSWWPDWTAWLAGQAGAKRAAPANYGNARYRAIEPAPGRYVKAKA
notes: The 64 kDa band; On the blots it was denatured (SDS-PAGE); The N-terminus is heterogeneous (starts at A7 or S10); also called PHB synthase; intact PHB synthase (band a)

How the values were obtained:
[1] = molecular target: A. eutrophus PHA synthase (Cupriavidus necator, UniProt P23608); conditions: read-out: apparent Km value (substrate concentration at half-optimal velocity); enzyme concentration constant at 0.95 mg/ml; 40 or 200 μl assay volumes; estimated from FIG. 10
Streptococcus pyogenes = assay: Antibiotic activity by filter paper disc on agar plates; type: cell-based; conditions: for inhibition zone around disc (antibiotic activity against Streptococcus pyogenes): 20 μL of 1.6 mM sample in MeOH on sterilized filter paper disc, Mueller-Hinton agar plates, overnight at 37° C.; for activity against Streptococcus pyogenes: purified compounds, S. pyogenes grown on Mueller-Hinton agar plates
Protocol: The antibiotic activity of a compound of formula (13) and (14) against Streptococcus pyogenes was examined by separately applying 20 μL of each sample (1.6 mM in MeOH) to sterilized filter paper discs which were placed onto the surface of S. pyogenes grown on Mueller-Hinton agar plates (Mangahas, 1996).

[2] = Storage stability of purified PHA synthase (activity remaining); type: physicochemical
Text: PHA synthase purified from insect cells appears to be relatively stable.

[3] = molecular target: the molecule itself; assay: size exclusion chromatography, native MW (about 100-160 kDa and about 50-80 kDa forms)

Row | Molecule | inhibition zone around disc (antibiotic activity against Streptococcus pyogenes) (Streptococcus pyogenes) | activity against Streptococcus pyogenes (Streptococcus pyogenes) | other results
1 | 3-hydroxybutyrate CoA [HBCoA] | – | – | Km [1]: 2500 µM
2 | CC[C@H]1OC(=O)[C@H](C)[C@@H](O[C@@H]2O[C@H](C)C[C@H](N(C)C)[C@H]2O)[C@@H](C)C[C@@H](C)C(=O)/C=C/[C@]1(C)O [compound of formula (1), methymycin] | clearly visible inhibition zones | clearly visible inhibition zones | –
3 | C[C@@H]1C[C@H](N(C)C)[C@@H](O)[C@H](O[C@H]2[C@@H](C)C[C@@H](C)C(=O)/C=C/[C@@H](C)[C@@H]([C@@H](C)O)OC(=O)[C@@H]2C)O1 [compound of formula (2), neomethymycin] | clearly visible inhibition zones | clearly visible inhibition zones | –
4 | CCC1OC(=O)C(C)C(OC2OC(C)CC(N(C)C)C2O[C@@H]2O[C@H](CO)[C@@H](O)[C@H](O)[C@H]2O)C(C)CC(C)C(=O)C=CC1(C)O (stereo partly drawn) [compound of formula (13), C-2′β-glucosylated methymycin] | no such clearings were discernible | – | –
5 | B1 | – | – | synthase activity remained after storage ([2]; after 7 weeks stored at −20° C. in the presence of 50% glycerol): approximately 75%; synthase activity remained after storage ([2]; after 7 weeks stored in liquid N2): approximately 50%; binding result [3]: binds
